In PubChem BioAssay AID1259411 (Chemical Carcinogenesis Research Information System (CCRIS), 2018):
Activity calls are given as the source filed them. How the calls were made is not given here.

Test system: rodent carcinogenicity bioassays, tumor incidence
Experiment: CCRIS carcinogenicity studies
Conditions: Dose: 0, Dose: 0
Summary of the method: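 NCI-built, expert-reviewed records of carcinogenicity and related test outcomes (mutagenicity, tumor promotion/inhibition) compiled from published and report sources, historical span 1985-2011, not updated.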

OCC(CO)(CBr)CBr
carcinogen call (Species: GUPPIE, Strain/Sex: MALE, Route: AQUARIUM WATER, 24, 60, 150 MG/L FOR 9 MO THEN IN CLEAN WATER FOR 7 MO (STUDY DURATION: 16 MO), 24, 60, 150 MG/L FOR 9 MO THEN IN CLEAN WATER FOR 7 MO (STUDY DURATION: 16 MO), Tumor Site: Type of Lesion: LIVER: HEPATOCELLULAR ADENOMA OR CARCINOMA): active; positive | carcinogen call (Species: GUPPIE, Strain/Sex: MALE, Route: AQUARIUM WATER, 24, 60, 150 MG/L FOR 16 MO (STUDY DURATION: 16 MO), 24, 60, 150 MG/L FOR 16 MO (STUDY DURATION: 16 MO), Tumor Site: Type of Lesion: LIVER: HEPATOCELLULAR ADENOMA OR CARCINOMA): active; positive; due to mortality, exposure in 150 mg/l group terminated on day 443 | carcinogen call (Species: MEDAKA, Strain/Sex: FEMALE, Route: AQUARIUM WATER, 24, 60, 150 MG/L FOR 14 MO (STUDY DURATION: 14 MO), 24, 60, 150 MG/L FOR 14 MO (STUDY DURATION: 14 MO)): inactive; negative | carcinogen call (Species: MEDAKA, Strain/Sex: MALE, Route: AQUARIUM WATER, 24, 60, 150 MG/L FOR 9 MO THEN IN CLEAN WATER FOR 5 MO (STUDY DURATION: 14 MO), 24, 60, 150 MG/L FOR 9 MO THEN IN CLEAN WATER FOR 5 MO (STUDY DURATION: 14 MO), Tumor Site: Type of Lesion: LIVER: HEPATOCELLULAR ADENOMA OR CARCINOMA): active; positive | carcinogen call (Species: MEDAKA, Strain/Sex: MALE, Route: AQUARIUM WATER, 24, 60, 150 MG/L FOR 14 MO (STUDY DURATION: 14 MO), 24, 60, 150 MG/L FOR 14 MO (STUDY DURATION: 14 MO), Tumor Site: Type of Lesion: LIVER: HEPATOCELLULAR ADENOMA OR CARCINOMA): active; positive | carcinogen call (Species: MOUSE, Strain/Sex: B6C3F1/FEMALE, Route: ORAL, 312, 625, 1250 PPM IN DIET FOR 104-105 WK (STUDY DURATION: 106 WK), 312, 625, 1250 PPM IN DIET FOR 104-105 WK (STUDY DURATION: 106 WK), Tumor Site: Type of Lesion: HARDERIAN GLAND: ADENOMA, CARCINOMA, LUNG: ALVEOLAR/BRONCHIOLAR ADENOMA OR CARCINOMA, SKIN(SUBCUTANEOUS TISSUE): SARCOMA, Tumor Site: Type of Lesion: HARDERIAN GLAND: ADENOMA, CARCINOMA, LUNG: ALVEOLAR/BRONCHIOLAR ADENOMA OR CARCINOMA, SKIN(SUBCUTANEOUS TISSUE): SARCOMA): active; positive | carcinogen call (Species: MOUSE, Strain/Sex: B63CF1/MALE, Route: ORAL, 312, 625, 1250 PPM IN DIET FOR 104-105 WK (STUDY DURATION: 106 WK), 312, 625, 1250 PPM IN DIET FOR 104-105 WK (STUDY DURATION: 106 WK), Tumor Site: Type of Lesion: HARDERIAN GLAND: ADENOMA, ADENOMA OR CARCINOMA, LUNG: ALVEOLAR/BRONCHIOLAR ADENOMA, ALVEOLAR/BRONCHIOLAR CARCINOMA): active; positive | carcinogen call (Species: RAT, Strain/Sex: F344/FEMALE, Route: ORAL, 2500, 5000, 10000 PPM IN DIET FOR 104-105 WK (STUDY DURATION: 105 WK), 2500, 5000, 10000 PPM IN DIET FOR 104-105 WK (STUDY DURATION: 105 WK), Tumor Site: Type of Lesion: ESOPHAGUS: SQUAMOUS CELL PAPILLOMA, MAMMARY GLAND: FIBROADENOMA, ORAL CAVITY: SQUAMOUS CELL PAPILLOMA OR SQUAMOUS CELL C, Tumor Site: Type of Lesion: ESOPHAGUS: SQUAMOUS CELL PAPILLOMA, MAMMARY GLAND: FIBROADENOMA, ORAL CAVITY: SQUAMOUS CELL PAPILLOMA OR SQUAMOUS CELL C): active; positive | carcinogen call (Species: RAT, Strain/Sex: F344/MALE, Route: ORAL, 2500, 5000, 10000 PPM IN DIET FOR 104-105 WK (STUDY DURATION: 105 WK), 2500, 5000, 10000 PPM IN DIET FOR 104-105 WK (STUDY DURATION: 105 WK), Tumor Site: Type of Lesion: ESOPHAGUS: SQUAMOUS CELL PAPILLOMA, LARGE INTESTINE: ADENOMATOUS POLYP, MAMMARY GLAND: FIBROADENOMA, FIBROADENOMA OR ADE, Tumor Site: Type of Lesion: ESOPHAGUS: SQUAMOUS CELL PAPILLOMA, LARGE INTESTINE: ADENOMATOUS POLYP, MAMMARY GLAND: FIBROADENOMA, FIBROADENOMA OR ADE): active; positive | carcinogen call (Species: RAT, Strain/Sex: F344/MALE, Route: ORAL, 20000 PPM IN DIET FOR 3 MO FOLLOWED BY NORMAL DIET FOR 21 MO (STUDY DURATION: 2 YR), Tumor Site: Type of Lesion: LARGE INTESTINE: ADENOMATOUS POLYP, LUNG: ALVEOLAR/BRONCHIOLAR ADENOMA OR CARCINOMA, MAMMARY GLAND: FIBROADENOMA, ORAL C, Tumor Site: Type of Lesion: LARGE INTESTINE: ADENOMATOUS POLYP, LUNG: ALVEOLAR/BRONCHIOLAR ADENOMA OR CARCINOMA, MAMMARY GLAND: FIBROADENOMA, ORAL C): active; positive

C1COCCN1
carcinogen call (Species: RAT, Strain/Sex: SPRAGUE-DAWLEY/FEMALE, Route: INHALATION, 10, 50, 150 PPM 6 HR/D 5 D/WK FOR 104 WK (STUDY DURATION: 105 WK), 10, 50, 150 PPM 6 HR/D 5 D/WK FOR 104 WK (STUDY DURATION: 105 WK)): inactive; negative | carcinogen call (Species: RAT, Strain/Sex: SPRAGUE-DAWLEY/MALE, Route: INHALATION, 10, 50, 150 PPM 6 HR/D 5 D/WK FOR 104 WK (STUDY DURATION: 105 WK), 10, 50, 150 PPM 6 HR/D 5 D/WK FOR 104 WK (STUDY DURATION: 105 WK)): inactive; negative

CCN(CC)C(=O)/C(Cl)=C(\C)OP(=O)(OC)OC
carcinogen call (Species: MOUSE, Strain/Sex: B6C3F1/FEMALE, Route: ORAL, 80, 160 PPM IN DIET, 80, 160 PPM IN DIET): inactive; negative | carcinogen call (Species: MOUSE, Strain/Sex: B6C3F1/MALE, Route: ORAL, 80, 160 PPM IN DIET, 80, 160 PPM IN DIET): inactive; negative | carcinogen call (Species: RAT, Strain/Sex: OSBORNE-MENDEL/FEMALE, Route: ORAL, 80, 160 PPM IN DIET FOR 80 WK (STUDY DURATION: 111 WK), 80, 160 PPM IN DIET FOR 80 WK (STUDY DURATION: 111 WK), Tumor Site: Type of Lesion: THYROID GLAND: C-CELL ADENOMA OR CARCINOMA): equivocal | carcinogen call (Species: RAT, Strain/Sex: OSBORNE-MENDEL/MALE, Route: ORAL, 80, 160 PPM IN DIET FOR 80 WK (STUDY DURATION: 111 WK), 80, 160 PPM IN DIET FOR 80 WK (STUDY DURATION: 111 WK), Tumor Site: Type of Lesion: SPLEEN: HEMANGIOMA OR HEMANGIOSARCOMA): equivocal
